Consider 6 molecules from patent US20180156808A1, “METHODS FOR DIAGNOSIS AND PROGNOSIS OF CANCERS OF EPITHELIAL ORIGIN” (Children's Medical Center Corporation, priority 2004, published 2018).

The experiment addresses T1, ADAM 12-S (Homo sapiens, UniProt O43184).
T1 construct: The full-length human ADAM 12-S gene was cloned into plasmid (p1151); made in house; host or cells: Cos-7 cells (ATCC, CRL 1651)
T1 sequence (O43184 208-738 isoform O43184-2 limits assumed): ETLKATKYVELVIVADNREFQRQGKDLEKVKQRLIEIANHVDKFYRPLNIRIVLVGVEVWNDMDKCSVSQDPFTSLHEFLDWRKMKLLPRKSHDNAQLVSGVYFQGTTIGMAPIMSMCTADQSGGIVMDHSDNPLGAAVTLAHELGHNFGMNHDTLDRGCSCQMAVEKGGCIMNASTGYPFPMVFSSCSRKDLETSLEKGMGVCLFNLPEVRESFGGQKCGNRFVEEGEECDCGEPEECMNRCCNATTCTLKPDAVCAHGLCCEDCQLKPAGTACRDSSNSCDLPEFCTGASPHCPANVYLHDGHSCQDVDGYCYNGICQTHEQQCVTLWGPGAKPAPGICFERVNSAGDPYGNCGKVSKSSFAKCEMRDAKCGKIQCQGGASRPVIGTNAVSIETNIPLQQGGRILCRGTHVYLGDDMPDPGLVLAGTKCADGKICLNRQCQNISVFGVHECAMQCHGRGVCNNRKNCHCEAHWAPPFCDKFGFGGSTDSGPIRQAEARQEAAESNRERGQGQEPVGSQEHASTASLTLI
T1 sequence (O43184 29-207 partner limits assumed): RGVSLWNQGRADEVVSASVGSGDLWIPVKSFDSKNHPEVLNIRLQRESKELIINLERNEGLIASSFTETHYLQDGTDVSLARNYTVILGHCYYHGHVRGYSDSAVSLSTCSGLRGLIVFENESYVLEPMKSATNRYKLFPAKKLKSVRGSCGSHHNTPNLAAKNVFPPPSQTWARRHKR
The experiment is described as follows: Inhibition of gelatin degradation by ADAM 12 (SDS-PAGE, Coomassie staining). The settings on record: ADAM 12 160 nM, 37° C., 18 h; for inhibition of gelatin degradation by ADAM 12: 30 μg gelatin. Format: biochemical. On the procedure: The full-length human ADAM 12-S gene was cloned into plasmid (p1151) and transfection of Cos-7 cells (ATCC, CRL 1651) was conducted as previously described (5). Expressed recombinant ADAM 12-S secreted into the conditioned medium, was purified as previously described with minor modifications. Briefly, conditioned media from transfected Cos-7 cells was subjected to successive steps of SP Sepharose and ConA Sepharose chromatography as described (6). ADAM 12-S containing fractions from the ConA Sepharose column were pooled and after buffer exchange applied to a Vivapure H Mini Q column (VivaScience, Carlsbad, Calif.) pre-equilibrated with buffer A containing 0.05% CHAPS. Pure ADAM 12-S was detected in the flow-through fraction as determined by SDS-PAGE and immunoblot analysis.
Gelatin, Type IV collagen, fibronectin and casein-degrading activity of ADAM 12-S was measured as previously described (14). ADAM 12-S (1 μM) was mixed with non-reducing sample buffer and separated on a 10% polyacrylamide gel containing either 0.1% gelatin, 0.1% Type IV collagen or 0.02% fibronectin and a 12% polyacrylamide gel containing 0.1% casein. After electrophoresis, the gel was washed with 2.5% Triton X-100 for 30 min. Substrate digestion was conducted by incubating the gel in 50 mM Tris, pH 7.6, containing 5 mM CaCl2, 1 μM ZnCl2 and 0.02% NaN3 at 37° C. for 18 h. Gels were stained with 0.1% Coomassie and bands of enzyme activity were detected as zones of clearance on a background of uniform blue staining. […] For inhibition assays, ADAM 12 (160 nM) was incubated with 30 μg gelatin in assay buffer (50 mM Tris, pH 7.5) in the presence or absence of various inhibitors 5 mM 1, 10-phenanthroline, 5 mM EDTA, 1 mM Marimastat or two different concentrations (100 and 500 nM) of either TIMP-1, TIMP-2, TIMP-3 or TIMP-4 in a final volume of 30 μl at 37° C. for 18 h. Reactions were stopped with the addition of non-reducing sample buffer and the samples resolved by SDS-PAGE analysis followed by Coomassie staining.

Where [1] appears, read: inhibitor 100 and 500 nM (even at concentrations 5-fold higher than the enzyme).

Take `CNC(=O)[C@@H](NC(=O)[C@H](CC(C)C)[C@H](O)C(=O)NO)C(C)(C)C` [Marimastat]: the “inhibition of gelatin degradation by ADAM 12” value (inhibitor 1 mM) is given as “partial inhibition”.
Consider `O=C(O)CN(CCN(CC(=O)O)CC(=O)O)CC(=O)O` [EDTA], for which, for the setting “inhibitor 5 mM”, the “inhibition of gelatin degradation by ADAM 12” value is “inhibited”.
Still for that read-out and setting: next, `c1cnc2c(c1)ccc1cccnc12` [1, 10-phenanthroline]: “inhibited”.
As for TIMP-1: endogenous inhibitor, the “inhibition of the gelatinase activity of ADAM 12” value (“inhibition … of ADAM 12” for short) under setting [1] was “did not inhibit”.

B1: TIMP-3: endogenous inhibitor (protein, UniProt P35625 24-211, looked up)
Metalloproteinase inhibitor 3: CTCSPSHPQDAFCNSDIVIRAKVVGKKLVKEGPFGTLVYTIKQMKMYRGFTKMPHVQYIHTEASESLCGLKLEVNKYQYLLTGRVYDGKMYTGLCNFVERWDQLTLSQRKGLNYRYHLGCNCKIKSCYYLPCFVTSKNECLWTDMLSNFGYPGYQSKHYACIRQKGGYCSWYRGWAPPDKSIINATDP
With B1, the “inhibition … of ADAM 12” value (inhibitor 500 nM) was “effective inhibitor”.

B2: TIMP-4: endogenous inhibitor (protein, UniProt Q99727 30-224, looked up)
Metalloproteinase inhibitor 4: CSCAPAHPQQHICHSALVIRAKISSEKVVPASADPADTEKMLRYEIKQIKMFKGFEKVKDVQYIYTPFDSSLCGVKLEANSQKQYLLTGQVLSDGKVFIHLCNYIEPWEDLSLVQRESLNHHYHLNCGCQITTCYTVPCTISAPNECLWTDWLLERKLYGYQAQHYVCMKHVDGTCSWYRGHLPLRKEFVDIVQP
Regarding B2, the “inhibition … of ADAM 12” value under setting [1] was “did not inhibit”.
